PubChem BioAssay (NCI)
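Tested at 5 concentrations; 48 h exposure; 96-well plates; endpoints linearly interpolated, else capped at highest concentration. TGI: total growth inhibition.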

Columns and labels:
Test in all cases: NCI tumour cell line growth inhibition, 48 h
A549 NSCLC = system: A549 NSCLC
ACHN renal = system: ACHN renal
CAKI-1 renal = system: CAKI-1 renal
CCRF-CEM leukemia = system: CCRF-CEM leukemia
DU-145 prostate = system: DU-145 prostate
EKVX NSCLC = system: EKVX NSCLC
HCT-116 colon = system: HCT-116 colon
HOP-92 NSCLC = system: HOP-92 NSCLC
HS 578T breast = system: HS 578T breast
M14 melanoma = system: M14 melanoma
NCI-H23 lung = system: NCI-H23 lung
NCI-H522 lung = system: NCI-H522 lung
NCI/ADR-RES ovarian = system: NCI/ADR-RES ovarian
OVCAR-3 ovarian = system: OVCAR-3 ovarian
OVCAR-8 ovarian = system: OVCAR-8 ovarian
PC-3 prostate = system: PC-3 prostate
SK-MEL-28 melanoma = system: SK-MEL-28 melanoma
SR leukemia = system: SR leukemia
T-47D breast = system: T-47D breast
UACC-257 melanoma = system: UACC-257 melanoma

| SMILES | TGI (A549 NSCLC) | TGI (ACHN renal) | TGI (CAKI-1 renal) | TGI (CCRF-CEM leukemia) | TGI (DU-145 prostate) | TGI (EKVX NSCLC) | TGI (HCT-116 colon) | TGI (HOP-92 NSCLC) | TGI (HS 578T breast) | TGI (M14 melanoma) | TGI (NCI-H23 lung) | TGI (NCI-H522 lung) | TGI (NCI/ADR-RES ovarian) | TGI (OVCAR-3 ovarian) | TGI (OVCAR-8 ovarian) | TGI (PC-3 prostate) | TGI (SK-MEL-28 melanoma) | TGI (SR leukemia) | TGI (T-47D breast) | TGI (UACC-257 melanoma) |
| --- | --- | --- | --- | --- | --- | --- | --- | --- | --- | --- | --- | --- | --- | --- | --- | --- | --- | --- | --- | --- |
| CN(CC1(CO)CCC1)c1cc(Cl)nc(N)n1 | > 100 µM | > 100 µM | > 100 µM | > 100 µM | > 100 µM | > 100 µM | > 100 µM | > 100 µM | > 100 µM | > 100 µM | > 100 µM | > 100 µM | > 100 µM | > 100 µM | > 100 µM | > 100 µM | > 100 µM | > 100 µM | > 100 µM | > 100 µM |
| C=CC/C=C/Cc1csc(C(C)(C)C(O)C/C=C/C(=C)CCNC(=O)OC)n1 (stereo not given) | > 100 µM | > 100 µM | > 100 µM | > 100 µM | > 100 µM | > 100 µM | > 100 µM | > 100 µM | > 100 µM | > 100 µM | > 100 µM | > 100 µM | > 100 µM | > 100 µM | > 100 µM | > 100 µM | > 100 µM | > 100 µM | > 100 µM | > 100 µM |
| COc1ccc2c(C)cc(N/N=C(\C)C=O)nc2c1 | 38.6 µM | 29.7 µM | 27.8 µM | 4 µM | 24.7 µM | 32.8 µM | 26.5 µM | 25.1 µM | 43.3 µM | 35.2 µM | 24.8 µM | 29.6 µM | 25.7 µM | 7.59 µM | 25 µM | 24.2 µM | 32.4 µM | 3.79 µM | 41.3 µM | 33.9 µM |
| N=c1oc2c(Cl)cc(Cl)cc2cc1C(=O)Nc1cccc2ccccc12 | > 100 µM | 11.2 µM | > 67.7 µM | 14.4 µM | > 100 µM | > 74.3 µM | 40.6 µM | 97.7 µM | > 53.2 µM | > 100 µM | > 52.6 µM | > 100 µM | 28.2 µM | > 40 µM | 14.2 µM | > 100 µM | > 100 µM | > 21.1 µM | 25.2 µM | > 100 µM |
| O=CC(=C(I)I)c1ccccc1 | 41.8 µM | 8.8 µM | 7.83 µM | 0.65 µM | 19.5 µM | 36.9 µM | 2.78 µM | 6.57 µM | 12.6 µM | 4.6 µM | 4.97 µM | 4.06 µM | > 38.5 µM | 3.69 µM | 6.95 µM | 13.7 µM | 7.36 µM | 1.25 µM | 9.18 µM | 8.05 µM |
| COC12OC3(C4OC41)C(C(=O)O[C@H]3CO[Si](C)(C)C(C)(C)C)C2C(=O)Oc1ccccc1 (stereo not given in full) | > 100 µM | > 100 µM | > 100 µM | > 100 µM | > 100 µM | > 100 µM | > 100 µM | > 100 µM | > 100 µM | > 100 µM | > 100 µM | > 100 µM | > 100 µM | > 100 µM | > 100 µM | > 100 µM | > 100 µM | > 100 µM | > 100 µM | > 100 µM |
| COc1cc(C=C2C(C)=NN(c3cccc(Cl)c3)C23SCC(=O)N3c2nc3ccccc3s2)ccc1O (stereo not given) | > 100 µM | 77.5 µM | > 96.2 µM | 15.8 µM | > 100 µM | > 100 µM | 65.3 µM | 45.4 µM | 32.4 µM | > 100 µM | 84.2 µM | 41.5 µM | > 96.7 µM | > 80.1 µM | 50.5 µM | 58.1 µM | > 100 µM | 29.2 µM | > 100 µM | > 100 µM |
| O=C(Cc1ccccc1)NNc1nc(NNC(=O)c2ccncc2)nc(Nc2ccc([N+](=O)[O-])cc2)n1 | > 10 µM | > 10 µM | > 10 µM | > 10 µM | > 10 µM | > 10 µM | > 10 µM | > 10 µM | > 10 µM | > 10 µM | > 10 µM | > 10 µM | > 10 µM | > 10 µM | > 10 µM | > 10 µM | > 10 µM | > 10 µM | > 10 µM | > 10 µM |
| CS(=O)(=O)N1CC(CCl)c2ccc([N+](=O)[O-])cc21 (stereo not given) | > 100 µM | > 100 µM | > 100 µM | > 100 µM | > 100 µM | > 100 µM | > 100 µM | > 100 µM | > 100 µM | > 100 µM | > 100 µM | > 100 µM | > 100 µM | > 100 µM | > 100 µM | > 100 µM | > 100 µM | > 100 µM | > 100 µM | > 100 µM |
| O=C(CCC(NC(=O)OCc1ccccc1)C(=O)OCc1ccccc1)Nc1ccc(OCc2ccccc2)cc1 (stereo not given) | > 31.6 µM | > 31.6 µM | > 31.6 µM | > 31.6 µM | > 31.6 µM | > 31.6 µM | 17.1 µM | > 31.6 µM | > 31.6 µM | > 100 µM | > 31.6 µM | > 100 µM | > 31.6 µM | > 100 µM | 20.2 µM | 28.4 µM | > 31.6 µM | > 31.6 µM | > 31.6 µM | > 31.6 µM |
| COC(O)C(=O)c1c2c(cc3c1CC1(Cc4cc5c(cc4C1)CCC5)C3)CCC2 (stereo not given) | 32.6 µM | 29.3 µM | 37.4 µM | 20.5 µM | 33.7 µM | 41.1 µM | 20.9 µM | 31 µM | 53.3 µM | 31 µM | 33.1 µM | 36.1 µM | 34 µM | 28.9 µM | 33.6 µM | 30.8 µM | 35.7 µM | 15.1 µM | 50.4 µM | 33.1 µM |
| COC(=O)c1ccccc1CC1Cc2ccc3c(c2C1=O)CCC3 (stereo not given) | > 100 µM | > 100 µM | > 100 µM | > 100 µM | > 100 µM | > 100 µM | > 100 µM | 94.9 µM | > 100 µM | > 100 µM | > 100 µM | 88 µM | > 100 µM | > 100 µM | > 100 µM | > 100 µM | > 100 µM | > 100 µM | > 100 µM | > 100 µM |
| CCN(CC)CCC(=O)c1ccc(Oc2ccc(Cl)cc2)cc1 | > 100 µM | 25.8 µM | 37.9 µM | 58.1 µM | 47.8 µM | 42.2 µM | 32 µM | 32.8 µM | 59 µM | 28.3 µM | 34 µM | 38 µM | 56.7 µM | 28.6 µM | 44.9 µM | 28.3 µM | 32.6 µM | 48.7 µM | 44.3 µM | 28.6 µM |
| O=C1C=C2C(=NC34CCCCC3C(c3ccccc3)C3=C(c5ccccc5CC3)N24)c2ccccc21 (stereo not given) | > 10 µM | > 10 µM | > 10 µM | > 10 µM | > 10 µM | > 10 µM | > 10 µM | > 10 µM | > 10 µM | > 10 µM | > 10 µM | > 10 µM | > 10 µM | > 10 µM | > 10 µM | > 10 µM | > 10 µM | > 10 µM | > 10 µM | > 10 µM |
| CCOC(=O)c1c(N2CCCC2)nsc1Nc1ccc(F)cc1 | > 100 µM | > 100 µM | > 100 µM | 73.7 µM | > 100 µM | > 100 µM | > 100 µM | 95.7 µM | > 100 µM | > 100 µM | > 100 µM | > 100 µM | > 100 µM | > 100 µM | > 100 µM | > 100 µM | > 100 µM | > 100 µM | 46 µM | > 100 µM |
| CCCC1(NC(=O)C(F)(F)F)CC(OC)OC2COC(c3ccccc3)OC21 (stereo not given) | > 100 µM | > 100 µM | > 100 µM | > 100 µM | > 100 µM | > 100 µM | > 100 µM | > 100 µM | > 100 µM | > 100 µM | > 100 µM | > 100 µM | > 100 µM | > 100 µM | > 100 µM | > 100 µM | > 100 µM | > 100 µM | > 100 µM | > 100 µM |
| c1ccc([P+](Cc2ccc(C[P+](c3ccccc3)(c3ccccc3)c3ccccc3)cc2)(c2ccccc2)c2ccccc2)cc1 | > 100 µM | > 100 µM | > 100 µM | > 100 µM | > 100 µM | > 100 µM | > 100 µM | 93.4 µM | > 100 µM | > 100 µM | > 100 µM | > 100 µM | > 100 µM | > 100 µM | > 100 µM | > 100 µM | > 100 µM | > 100 µM | > 100 µM | > 100 µM |
| NC(=O)c1cc2cc(Cl)cc(Cl)c2oc1=Nc1ccc(F)cc1 | 70.1 µM | 41.8 µM | 38 µM | > 100 µM | 41.8 µM | 34.5 µM | 38.3 µM | 80.4 µM | > 100 µM | 45.5 µM | 27.8 µM | 38.1 µM | 34.5 µM | 52.9 µM | > 100 µM | 44.3 µM | 46.3 µM | 24.8 µM | 73.5 µM | 42.8 µM |
